Assay results published in publication PMC3200115, “Peptide Inhibition of Topoisomerase IB from Plasmodium falciparum” (Molecular Biology International, 2011).
Bridges are numbered along the chain shown (N, C = ends). Where no end group is shown, it is not given here.

Experiments:
[1] = test system: P. falciparum topoisomerase I (pfTopoI); experiment: Plasmid (pBR322) DNA relaxation by pfTopoI; format: biochemical, Plasmodium falciparum; conditions: peptide 1.3 to 50 μM; even at concentrations up to 50 μM; 30 min, 37°C
DNA = experiment: Unspecific DNA binding; conditions: confirmed in the present study, data not shown
[2] = test system: type IB Topo of Vaccinia virus (vvTopoI); conditions: cited from earlier work; for step of catalysis inhibited (vvTopoI): DNA relaxation by vvTopoI; for step of catalysis inhibited (vvTopoI) / inhibition of vvTopoI relaxation activity: ref [39], [40]; for activity against vvTopoI: from rescreening of peptide combinatorial library against vvTopoI, ref [40]
bacteriophage λ-Int = conditions: ref [39], [40]; cited from earlier work

Substance | effect on relaxation activity of pfTopoI [1] | DNA binding capacity (DNA) | step of catalysis inhibited (vvTopoI) [2] | activity against vvTopoI [2] | inhibition of vvTopoI relaxation activity [2] | step of catalysis inhibited (λ-Int) (bacteriophage λ-Int)
KCCRCK (disulfide (positions not given here)) [synthetic hexapeptide purchased from GenScript] | no effect | unspecific DNA binding capacity | specific inhibition of the cleavage and not the ligation step of catalysis | high activity | inhibited the relaxation activity of vvTopoI | specific inhibition of the cleavage and not the ligation step of catalysis
WYCRCK (disulfide 3-5 (inferred)) [synthetic hexapeptide purchased from GenScript] | no effect | unspecific DNA binding capacity | specific inhibition of the cleavage and not the ligation step of catalysis | high activity | inhibited the relaxation activity of vvTopoI | specific inhibition of the cleavage and not the ligation step of catalysis
